Results as given in patent US6737438B2, “Substituted 1,2,4-trioxanes useful as antimalarial agents and a process for the preparation thereof” (Council of Scientific and Industrial Research, priority 2002, dated 2004).
Like-named read-outs stand apart in the source and are kept apart here.

Columns and labels:
[1] = tested on: multidrug resistant strain of Plasmodium yoelii Nigeriensis; experiment: Antimalarial activity against multidrug resistant P. yoelii in swiss mice; assay type: in vivo; conditions: for % Suppression on Day 4 / inhibition in vivo at 96 mg/kg: 4 consecutive days (day 0-3), parasitaemia vs vehicle control; for Cured/treated: observed till day 28; for inhibition in vivo at 96 mg/kg / responders at 96 mg/kg: Plasmodium yoelii; for inhibition in vivo at 96 mg/kg: 96 h, read-out: % Suppression on Day 4; for responders at 96 mg/kg: 672 h, observed till day 28, read-out: Cured/treated (converted)

Row | Compound | % Suppression on Day 4 ([1]; i.m., 96 mg/kg) | Cured/treated ([1]; i.m., 96 mg/kg) | % Suppression on Day 4 ([1]; oral, 96 mg/kg) | Cured/treated ([1]; oral, 96 mg/kg) | further results
1 | Clc1ccc(-c2ccc(C=CC3COC4(CCCCC4)OO3)cc2)cc1 (stereo not drawn) | – | – | – | – | melting point: 96 to 98 °C
2 | Clc1ccc(-c2ccc(C=CC3COC4(CCCC4)OO3)cc2)cc1 (stereo not drawn) | – | – | – | – | melting point: 102 to 104 °C
3 | C(=CC1COC(c2ccccc2)OO1)c1ccc(C2CCCCC2)cc1 (stereo not drawn) [Trioxane 7bc, 6-[(4′-cyclohexylphenyl)vinyl]-3-phenyl-1,2,4-trioxane] | 41.98% | 0/5 | 95.64% | 0/5 | –
4 | C(=CC1COC2(CCCC2)OO1)c1ccc(-c2ccccc2)cc1 (stereo not drawn) [Trioxane 7eb, 8-[([1,1′-biphenyl]-4yl)vinyl]-6,7,10-trioxaspiro (4,5) decane] | – | – | – | – | inhibition in vivo at 96 mg/kg ([1]; oral, 96 mg/kg): 100%; responders at 96 mg/kg ([1]; oral, 96 mg/kg): 0%; inhibition in vivo at 96 mg/kg ([1]; im, i.m., 96 mg/kg): 100%; responders at 96 mg/kg ([1]; im, i.m., 96 mg/kg): 100%
5 | C(=CC1COC2(CCCCCC2)OO1)c1ccc(C2CCCC2)cc1 (stereo not drawn) [Trioxane 7ad] | 48% | 0/5 | 88.68% | 0/5 | –
6 | C=C(c1ccc(C2CCCC2)cc1)C1COC2(OO1)C1CC3CC(C1)CC2C3 (stereo not drawn) [Trioxane 9a] | 81.23% | 0/5 | 100% | 5/5 | –
7 | C=C(c1ccc(C2CCCCCCC2)cc1)C1COC2(CCC(c3ccccc3)CC2)OO1 (stereo not drawn) [Trioxane 7dd] | 73.81% | 0/5 | 100% | 4/5 | –
8 | C=C(c1ccc(-c2ccc(Cl)cc2)cc1)C1COC2(OO1)C1CC3CC(C1)CC2C3 (stereo not drawn) [Trioxane 9g] | 100% | – | 100% | 3/5 | –
9 | Brc1ccc(-c2ccc(C=CC3COC4(CCCCC4)OO3)cc2)cc1 (stereo not drawn) [Trioxane 7fc, 3-[(4′-bromo-[1,1′-biphenyl]-4-yl)-vinyl]-1,2,5-trioxaspiro (5,5) undecane] | – | – | – | – | inhibition in vivo at 96 mg/kg ([1]; oral, 96 mg/kg): 100%; responders at 96 mg/kg ([1]; oral, 96 mg/kg): 100%; inhibition in vivo at 96 mg/kg ([1]; im, i.m., 96 mg/kg): 46.4%; responders at 96 mg/kg ([1]; im, i.m., 96 mg/kg): 20%
10 | C=C(c1ccc(-c2ccc(Br)cc2)cc1)C1COC2(CC3CCC2C3)OO1 (stereo not drawn) [Trioxane 8f] | 100% | 0/5 | 100% | 5/5 | –
11 | C=C(c1ccc(C2CCCCC2)cc1)C1COC2(CCC(c3ccccc3)CC2)OO1 (mixture of isomers) [Trioxane 7be] | 91.6% | 0/5 | – | – | % Suppression on Day 4 ([1]; oral, 48 mg/kg): 100%; Cured/treated ([1]; oral, 48 mg/kg): 5/5
12 | C=C(c1ccc(C2CCCC2)cc1)C1COC2(CC3CCC2C3)OO1 (stereo not drawn) [Trioxane 8a] | 81.23% | 0/5 | 100% | 5/5 | –
13 | C=C(c1ccc(C2CCCCCC2)cc1)C1COC2(CCC(C(C)(C)CC)CC2)OO1 (stereo not drawn) [Trioxane 7cb] | 86.31% | 0/5 | 100% | 5/5 | –
14 | C=C(c1ccc(-c2ccccc2)cc1)C1COC2(CCC(c3ccccc3)CC2)OO1 (stereo not drawn) [Trioxane 7ef] | 42.7% | 0/5 | 100% | 2/5 | –
15 | C=C(c1ccc(C2CCCCCC2)cc1)C1COC2(CCC(c3ccccc3)CC2)OO1 (stereo not drawn) [Trioxane 7cd] | 58.17% | 0/5 | 100% | 2/5 | –
16 | C(=CC1COC(c2ccccc2)OO1)c1ccc(-c2ccccc2)cc1 (stereo not drawn) | – | – | – | – | melting point: 92 to 95 °C
